Paper PMC10791743, “Selective CK1α degraders exert antiproliferative activity against a broad range of human cancer cell lines” (Nature Communications, 2024)
Where “and” joins values, the source holds several entries; their conditions need not be identical. Identical values can stand only once.

Key:
MOLM-13 cells = assay: TMT quantitative proteomics in MOLM-13; assay type: cell-based, human; conditions: for TMT protein intensity, CDKN1A, replicate values: DMSO 3.10E+04, 3.47E+04; for TMT protein intensity, CSNK1A1, replicate values: DMSO 4.01E+05, 4.09E+05; for Proteins with significantly reduced abundance (TMT proteomics): 1 μM
Procedure: We next carried out a tandem mass tag (TMT) quantitative proteomics experiment[30] to identify the neosubstrates whose degradation is induced by SJ7095. […] We confirmed the proteomics results by immunoblot analysis of CK1α in MOLM-13 cells following treatment with increasing concentrations of SJ7095 over 4 h (Fig. 2b). Under these conditions compound SJ7095 induced dose-dependent reduction of CK1α protein levels with DC50 value of 15 nM.
Each compound was tested in three wells of 2 million MOLM-13 cells each. […] Cells were then collected and washed with DPBS. Washed cells were centrifuged at 400×g for 5 min at 4 °C, the supernatant was removed, and pellets were snap frozen in liquid nitrogen and stored at −80 °C until sample submission.
The experiment was performed with a previously optimized protocol[30] with slight modification. Cell pellets were lysed in lysis buffer (50 mM HEPES, pH 8.5, 8 M urea, and 0.5% sodium deoxycholate). To profile the whole proteome, the protein lysates (approximately 100 µg of protein per sample) were proteolyzed with LysC (Wako) at an enzyme-to-substrate ratio of 1:100 (w/w) for 2 h at 21 °C. Following this the samples were diluted to a final 2 M Urea concentration, and further digested with trypsin (Promega) at an enzyme-to-substrate ratio of 1:50 (w/w) for at least 3 h. The peptides were reduced by adding 1 mM DTT for 30 min at 21 °C followed by alkylation with 10 mM iodoacetamide (IAA) for 30 min in the dark. The unreacted IAA was quenched with 30 mM DTT for 30 min. Finally, the digestion was stopped by adding trifluoroacetic acid (TFA) to 1%, desalted using C18 cartridges (Harvard Apparatus), and dried by speedvac. The purified peptides were resuspended in 50 mM HEPES (pH 8.5), and labeled with TMT reagents (Thermo Scientific). The differentially labeled samples were pooled equally, desalted, and dried for the subsequent peptide fractionation. Peptide analysis by two-dimensional liquid chromatography–tandem mass spectrometry (LC/LC–MS/MS) and MS data analysis are described in Supplementary Material. […]
Identification/quantification of proteins
The MS/MS raw data were processed by a tag-based hybrid search engine, JUMP7. The data was […]
concatenated with a reversed decoy database for evaluating False Discovery Rate (FDR). Searches were performed using a 15 ppm mass tolerance for precursor ions, fully tryptic restriction with two maximal missed cleavages, three maximal modification sites, and the assignment of b, and y ions.
TMT tags on lysine residues and N-termini (+304.2071453 Da for TMT16 and TMT18) were used for static modifications. In addition, oxidation of Methionine (Met) was considered as a dynamic modification (+15.99492 Da). Putative peptide spectral matches (PSMs) were filtered by mass accuracy and then grouped by precursor ion charge state and further filtered by JUMP-based matching scores, Jscore and ΔJn, to achieve the protein FDR below 1%. For quantification, TMT intensities of reporter ions were extracted, filtered, normalized, and summarized into peptide and […]
Differential expression analysis of proteins
Identification of differentially expressed proteins were conducted by the limma R package8. To control multiple testing, the Benjamini-Hochberg method was employed. Proteins with an adjusted […]
p value of < 0.05 and log2 fold change of > 2-fold of standard deviation (SD) were defined as differentially expressed. […]

CRBN−/− MOLM-13 cells = assay: Annexin-V staining for apoptosis, CRBN−/− MOLM-13; assay type: cell-based, human; conditions: for Effect on viability of CRBN−/− cells (annexin-V): 1 μM; for Late apoptosis, flow cytometry / Early apoptosis, flow cytometry: CRBN-/-; for total apoptosis, flow cytometry: MOLM-13 CRBN-/-
Procedure: Wild type and CRBN^−/− MOLM-13 cells were grown in 12-well plates (TPP, Techno Plastic Products AG) with 500,000 cells per well in 2 ml total media volume. Cells were treated with 1 μl/ml DMSO or 1 μM compound in triplicate, and incubated for 24 or 72 h at 37 °C. To prepare samples, this buffer was used: 10 mM HEPES, 0.14 M NaCl, 2.5 mM CaCl2 pH 7.4, 2% v/v FBS in UltraPure water (Invitrogen). After incubation, samples were collected in 5-ml tubes for flow cytometry (Falcon). Single-stain controls consisted of ~150 μl of multiple samples combined. Wells were washed with 1 ml of buffer that was added to the corresponding sample tube. Cells were centrifuged at 500×g for 5 min at 4 °C to form a pellet. Supernatant was decanted and cells were washed again with 3 ml of buffer, then centrifuged. After decanting the supernatant, 3 μl of APC-conjugated anti-Annexin-V antibody (BioLegend) was added to each tube in the residual buffer left behind. Samples were mixed by vortex and incubated at room temperature in the dark for 20 min. Samples were then washed and centrifuged a final time, decanting the supernatant and blotting the tubes to remove residual buffer. 50 μl of buffer with DAPI was added to all appropriate samples and mixed, then analyzed by flow cytometry.
Supplementary Fig. 13: Gating for Annexin V flow cytometry analysis. Total cells were gated to remove cell debris, followed by single cell gating on the FSC-A/FSC-H diagonal. Within the single […]
Live cells are negative for both fluorescent markers, DAPI positive/APC negative cells are necrotic, APC positive/DAPI negative cells are still alive but in the early stages of apoptosis, and double positive cells are dead via apoptosis. Percentages of early and late apoptosis were plotted in supplementary figures 4 and 5.
(1 picture or pasted object on this page, not shown here)

[1] = SI_Fig 4c, DMSO 10.2, 11.1, 11.2

O=C1CCC(N2Cc3c(CNC(=O)c4ccc(F)cc4)cccc3C2=O)C(=O)N1 (stereo not drawn) [SJ7095]
Log2FC vs. DMSO, CDKN1A (Cyclin-dependent kinase inhibitor 1) (MOLM-13 cells; 1uM, 4h): 1.031
Log2FC vs. DMSO, CSNK1A1 (Casein kinase I isoform alpha) (MOLM-13 cells; 1uM, 4h): -1.331
TMT protein intensity, CDKN1A, replicate values (MOLM-13 cells; 1uM, 4h): 6.19E+04 and 7.24E+04
TMT protein intensity, CSNK1A1, replicate values (MOLM-13 cells; 1uM, 4h): 1.55E+05 and 1.67E+05
Log2FC vs. DMSO, CDKN1A (Cyclin-dependent kinase inhibitor 1) (MOLM-13 cells; 1uM, 8h): 1.234
Log2FC vs. DMSO, CSNK1A1 (Casein kinase I isoform alpha) (MOLM-13 cells; 1uM, 8h): -1.306
TMT protein intensity, CDKN1A, replicate values (MOLM-13 cells; 1uM, 8h): 7.09E+04 and 8.39E+04
TMT protein intensity, CSNK1A1, replicate values (MOLM-13 cells; 1uM, 8h): 1.62E+05 and 1.65E+05
Log2FC vs. DMSO, CDKN1A (Cyclin-dependent kinase inhibitor 1) (MOLM-13 cells; 1uM, 24h): 1.074
Log2FC vs. DMSO, CSNK1A1 (Casein kinase I isoform alpha) (MOLM-13 cells; 1uM, 24h): -1.500
TMT protein intensity, CDKN1A, replicate values (MOLM-13 cells; 1uM, 24h): 7.28E+04 and 6.55E+04
TMT protein intensity, CSNK1A1, replicate values (MOLM-13 cells; 1uM, 24h): 1.44E+05 and 1.42E+05
Proteins significantly degraded (TMT proteomics) (MOLM-13 cells; 5 µM, 4 h): significant degradation of only three proteins out of over 9000 identified proteins was observed: CK1α, IKZF1, and IKZF3
Log2FC vs. DMSO, CDKN1A (MOLM-13 cells; 5uM, 4h): 1.546
Log2FC vs. DMSO, CSNK1A1 (MOLM-13 cells; 5uM, 4h): -1.318
Log2FC vs. DMSO, CDKN1A (Cyclin-dependent kinase inhibitor 1) (MOLM-13 cells; 5uM, 8h): 1.278
Log2FC vs. DMSO, CSNK1A1 (Casein kinase I isoform alpha) (MOLM-13 cells; 5uM, 8h): -1.485
TMT protein intensity, CDKN1A, replicate values (MOLM-13 cells; 5uM, 8h): 8.76E+04 and 7.22E+04
TMT protein intensity, CSNK1A1, replicate values (MOLM-13 cells; 5uM, 8h): 1.51E+05 and 1.38E+05
Log2FC vs. DMSO, CDKN1A (Cyclin-dependent kinase inhibitor 1) (MOLM-13 cells; 5uM, 24h): 1.163
Log2FC vs. DMSO, CSNK1A1 (Casein kinase I isoform alpha) (MOLM-13 cells; 5uM, 24h): -1.582
TMT protein intensity, CDKN1A, replicate values (MOLM-13 cells; 5uM, 24h): 7.42E+04 and 7.27E+04
TMT protein intensity, CSNK1A1, replicate values (MOLM-13 cells; 5uM, 24h): 1.48E+05 and 1.23E+05
Log2FC vs. DMSO, CDKN1A (Cyclin-dependent kinase inhibitor 1) (MOLM-13 cells; 10uM, 4h): 1.536
Log2FC vs. DMSO, CSNK1A1 (Casein kinase I isoform alpha) (MOLM-13 cells; 10uM, 4h): -1.354
TMT protein intensity, CDKN1A, replicate values (MOLM-13 cells; 10uM, 4h): 1.01E+05 and 8.94E+04
TMT protein intensity, CSNK1A1, replicate values (MOLM-13 cells; 10uM, 4h): 1.47E+05 and 1.71E+05
Effect on viability of CRBN−/− cells (annexin-V) (CRBN−/− MOLM-13 cells): no effect on the viability
Late apoptosis, flow cytometry (CRBN−/− MOLM-13 cells; SI_Fig 4b, DMSO 3.1, 3.5, 3.3): 2.7 and 3 and 3.2
Early apoptosis, flow cytometry (CRBN−/− MOLM-13 cells; SI_Fig 4b, DMSO 7.1, 7.5, 7.8): 6.9 and 8.1 and 7
Late apoptosis, flow cytometry (CRBN−/− MOLM-13 cells; SI_Fig 5b, DMSO 1.3, 1.9, 2): 1.7 and 2.1 and 1.9
Early apoptosis, flow cytometry (CRBN−/− MOLM-13 cells; SI_Fig 5b, DMSO 4.6, 5.9, 7.6): 6.5 and 6.7 and 7.2
total apoptosis, flow cytometry (CRBN−/− MOLM-13 cells; [1]): 9.6 and 11.1 and 10.2
total apoptosis, flow cytometry (CRBN−/− MOLM-13 cells; SI_Fig 5c, DMSO 5.8, 7.8, 9.6): 8.2 and 8.8 and 9.1

O=C1CCC(N2Cc3cc(Nc4noc5ccccc45)ccc3C2=O)C(=O)N1 (stereo not drawn) [SJ3149]
Proteins with significantly reduced abundance (TMT proteomics) (MOLM-13 cells; 4 h): significantly reduced the abundance of only CK1α out of >9000 proteins
Log2FC vs. DMSO, CSNK1A1 (MOLM-13 cells; 1uM, 4h): -0.851
Log2FC vs. DMSO, CTNNB1 (MOLM-13 cells; 1uM, 4h): 1.473
Effect on viability of CRBN−/− cells (annexin-V) (CRBN−/− MOLM-13 cells): no effect on the viability
Late apoptosis, flow cytometry (CRBN−/− MOLM-13 cells; SI_Fig 4b, DMSO 3.1, 3.5, 3.3): 2.9 and 2.8 and 2.6
Early apoptosis, flow cytometry (CRBN−/− MOLM-13 cells; SI_Fig 4b, DMSO 7.1, 7.5, 7.8): 8.1 and 7.5 and 5.1
Late apoptosis, flow cytometry (CRBN−/− MOLM-13 cells; SI_Fig 5b, DMSO 1.3, 1.9, 2): 2.1 and 1.7 and 2.2
Early apoptosis, flow cytometry (CRBN−/− MOLM-13 cells; SI_Fig 5b, DMSO 4.6, 5.9, 7.6): 6.7 and 6.2 and 6.6
total apoptosis, flow cytometry (CRBN−/− MOLM-13 cells; [1]): 10.9 and 10.4 and 7.6
total apoptosis, flow cytometry (CRBN−/− MOLM-13 cells; SI_Fig 5c, DMSO 5.8, 7.8, 9.6): 8.8 and 7.9 and 8.7

Cc1cccc(C(=O)Nc2ccc3c(c2)CN(C2CCC(=O)NC2=O)C3=O)c1 (stereo not drawn) [SJ0040]
Proteins with significantly reduced abundance (TMT proteomics) (MOLM-13 cells; 4 h): significantly reduced the abundance of only CK1α out of >9000 proteins
Log2FC vs. DMSO, BHLHE40 (MOLM-13 cells; 1uM, 4h): 0.522
Log2FC vs. DMSO, CSNK1A1 (MOLM-13 cells; 1uM, 4h): -1.896
Effect on viability of CRBN−/− cells (annexin-V) (CRBN−/− MOLM-13 cells): no effect on the viability
Late apoptosis, flow cytometry (CRBN−/− MOLM-13 cells; SI_Fig 4b, DMSO 3.1, 3.5, 3.3): 3.1 and 2.5 and 2.8
Early apoptosis, flow cytometry (CRBN−/− MOLM-13 cells; SI_Fig 4b, DMSO 7.1, 7.5, 7.8): 7.6 and 5.6 and 6
Late apoptosis, flow cytometry (CRBN−/− MOLM-13 cells; SI_Fig 5b, DMSO 1.3, 1.9, 2): 2 and 1.5 and 1.3
Early apoptosis, flow cytometry (CRBN−/− MOLM-13 cells; SI_Fig 5b, DMSO 4.6, 5.9, 7.6): 5.5 and 5.1 and 4.5
total apoptosis, flow cytometry (CRBN−/− MOLM-13 cells; [1]): 10.6 and 8.1 and 8.8
total apoptosis, flow cytometry (CRBN−/− MOLM-13 cells; SI_Fig 5c, DMSO 5.8, 7.8, 9.6): 7.5 and 6.5 and 5.9
